In brackets after ≈: the same amount, converted by molar mass.
Legend:
Plasmodium falciparum = assay: Antiplasmodial activity against Plasmodium falciparum NF54 erythrocytic stages assessed as parasite growth inhibition preincubated overnight followed by [G-3H]hypoxanthine addition and measured after 24 hrs by liquid scintillation counting method; type: functional, organism-based
L6 = assay: Cytotoxicity against rat L6 cells; type: cell-based
[1] = Selectivity index, ratio of IC50 for rat L6 cells to IC50 for Plasmodium falciparum NF54; type: toxicity; conditions: read-out: Ratio IC50
[2] = tested on: Trypanosoma brucei rhodesiense; assay: Trypanocidal activity against Trypanosoma brucei rhodesiense STIB900 trypomastigotes incubated for 72 hrs by Alamar blue assay; type: functional, organism-based; conditions: STIB900, 72 h
[3] = Selectivity index, ratio of IC50 for rat L6 cells to IC50 for Trypanosoma brucei rhodesiense STIB900 trypomastigotes; type: toxicity; conditions: read-out: Ratio IC50
[4] = tested on: Mycolicibacterium smegmatis; assay: Antimycobacterial activity against Mycobacterium smegmatis mc2 155 ATCC 700084 assessed as inhibition of visible growth of bacteria by MTT assay; type: functional
[5] = tested on: Mycolicibacterium smegmatis; assay: Antimycobacterial activity against Mycobacterium smegmatis mc2 155 ATCC 700084 assessed as fold reduction in EtBr MIC at half MIC concentration; type: functional

Compound	IC50 (Plasmodium falciparum; read-out: IC50) [nM]	IC50 (Plasmodium falciparum; read-out: pIC50 (converted)) [nM]	IC50 (L6) [nM]	selectivity ratio [1]	IC50 ([2]; read-out: IC50) [nM]	IC50 ([2]; read-out: pIC50 (converted)) [nM]	selectivity ratio [3]	MIC [4] [µg/mL]	fold change (FC) [5]
O=C1C=C(c2ccc(C(F)(F)F)cc2)C(=O)c2ccccc21	1080	1070	15100	14	80	75.9	189	128 (≈ 423 µM)	4
O=C1C=C(c2cc3ccccc3o2)C(=O)c2ccccc21	25000	25100	209000	8.4	1360	1350	154	> 128	2
CC[n+]1c(-c2ccccc2)c2cc(N)ccc2c2ccc(N)cc21.[Br-] [HOMIDIUM BROMIDE]								8	
O=C1C=C(c2ccc(OC(F)(F)F)cc2)C(=O)c2ccccc21	3870	3890	16600	4.3	2360	2340	7	16 (≈ 50.3 µM)	128
Cc1ccc(C2=CC(=O)c3ccccc3C2=O)cc1	3860	3890	7260	1.9	80	75.9	90.8	32 (≈ 129 µM)	2
COc1cc([C@@H]2c3cc4c(cc3[C@H](O)[C@H]3COC(=O)[C@H]23)OCO4)cc(OC)c1OC [PODOFILOX]			24						
O=C1C=C(c2ccc(Cl)cc2)C(=O)c2ccccc21	2640	2630	8960	3.4	220	224	40.7	16 (≈ 59.5 µM)	>128
O=C1C=C(c2cnc3ccccc3c2)C(=O)c2ccccc21	450	447	5640	12.5	220	224	25.6	8 (≈ 28 µM)	8
O=C1C=C(c2cccc(OC(F)(F)F)c2)C(=O)c2ccccc21	890	891	23200	26.1	1800	1780	12.9	64 (≈ 201 µM)	128
O=C1C=C(c2cnc(Cl)nc2)C(=O)c2ccccc21	470	468	1020	2.2	130	129	7.8	4 (≈ 14.8 µM)	2
O=C1C=C(c2ccc(C(=O)N3CCCCC3)cc2)C(=O)c2ccccc21	2370	2340	9710	4.1	750	741	12.9	32 (≈ 92.6 µM)	8
O=C1C=C(c2ccccc2)C(=O)c2ccccc21	11000	11000	19400	1.8	60	55	323	8 (≈ 34.2 µM)	4
O=C1C=C(c2ccco2)C(=O)c2ccccc21	2070	2090	7440	3.6	130	129	57.2	128 (≈ 571 µM)	2
O=C1C=C(c2ccc(F)cc2)C(=O)c2ccccc21	1810	1820	9060	5	220	219	41.2	128 (≈ 507 µM)	>128
O=C1C=C(c2cc(F)cc(F)c2)C(=O)c2ccccc21	590	589	9670	16.4	240	240	40.3	> 128	4
O=C1C=C(c2ccc(Cl)nc2)C(=O)c2ccccc21	70	66.1	32400	463	2200	2190	14.7	32 (≈ 119 µM)	128
CS(=O)(=O)Nc1cccc(C2=CC(=O)c3ccccc3C2=O)c1	2560	2570	9250	3.6	200	200	46.3	> 128	128
N#Cc1ccc(C2=CC(=O)c3ccccc3C2=O)cc1	1110	1100	7210	6.5	280	275	25.8	64 (≈ 247 µM)	>128
CC(C)c1ccc(C2=CC(=O)c3ccccc3C2=O)cc1	2960	2950	20400	6.9	1450	1450	14.1	64 (≈ 232 µM)	4
NNC(=O)c1ccncc1 [ISONIAZID]								4 (≈ 29.2 µM)	
O=C1C=C(c2ccc(F)nc2)C(=O)c2ccccc21	110	115	2100	19.1	140	138	15	16 (≈ 63.2 µM)	>128

Reference: ChEMBL document CHEMBL4765460, “Palladium-catalysed synthesis of arylnaphthoquinones as antiprotozoal and antimycobacterial agents” (Eur J Med Chem, 2020)
